Here are results for 1 substance from patent publication US12434040B2, “Applicator for a microneedle array patch delivery system” (VAXESS TECHNOLOGIES, INC., priority 2023, dated 2025).

The conditions of series [1]: rat, in vivo, 220 ug.
Description: (§1) The first study was a pilot study evaluating the impact of array size and dose per needle on the PK profile. Approximately 324 μg of GLP-1 was formulated in Form 1 and delivered with a 60 vs a 90-microneedle array (FIG. 25A). […] The second study was a pilot study evaluating˜5 μg per needle formulated in either Form 1 or Form 2 each delivered with a 61-microneedle array.
(§2) A follow up PK study, with more extensive sampling, particularly in the first 48 hours, was carried out next.
(§3) A dose matched sample formulated in Tris buffer delivered by the subcutaneous route was included as a comparator. MAP dose loading and delivery was confirmed by RP-HPLC (FIG. 26A, top panels). […] The inset in FIG. 26A plots the total area under the curve (AUC) which is a measure of the total exposure to drug product for each animal, for each treatment group and serves as an estimate of bioavailability.
(§4) Male Sprague-Dawley rats (n≥5) of approximately 350-450 g and male Göttingen mini-pigs of 25-30 kg (n≥3) are used in pharmacokinetic studies. […] Individual animal plasma concentration-time values are used to calculate plasma concentration-time data for each delivery route and analyzed by noncompartmental pharmacokinetics using standard PK software.
Series [2] is described as follows: Rat PK studies (MAP vs subcutaneous), with body weights and application site observations. Particulars: rat follow up study; target dose 220 μg.
Description: as §1, §2, §3, §4

In the case of semaglutide [SQ delivered GLP-1], in series [1], the “AUC (bioavailability)” value is on record as “some variation in the AUC”. The “weight loss by Day 4” value in series [2] is reported as 10%.
